In patent US10125142B2, “Method for purifying mitomycin C” (Kyowa Hakko Kirin Co., Ltd., priority 2015, dated 2018):

Assay: Change in the number of particles in mitomycin C in a stability test under severe conditions (MFI DPA5200 particle quantification)
Type: physicochemical
Settings: for number of particles ≥10 μm in 10 mg of mitomycin C / number of particles ≥25 μm in 10 mg of mitomycin C: average of triplicates; for change in number of particles having a diameter of 10 μm or more / change in number of particles having a diameter of 25 μm or more: after 300-hour exposure to severe conditions (50° C.), result in words
Protocol: Change in the Number of Particles in Mitomycin C in a Stability Test under Severe Conditions
300 mg of each mitomycin C prepared in Example 1 and Comparative Examples 1 and 2 is separately placed into a vial, and stored at 50° C. under uncontrolled humidity. Sampling was performed after 0, 191 and 300 hours from the onset of the storage, and whether the number of particles would increase was examined according to the following section “Quantification of Particles in Mitomycin C”.
Quantification of Particles in Mitomycin C
10 mg of mitomycin C was weighed out accurately, water for injection was added to make up the volume to 25 mL exactly, and the resulting solution was used as a sample solution.
The particles in mitomycin C were analyzed with MFI DPA5200 (Protein Simple). Prior to the analysis of the sample solution, the passage in the analytical device was washed with water for injection to obtain the particle-free baseline. 1 mL of the sample solution was drawn into a pipette tip and then loaded on the sample holder. The sample solution was allowed to pass into the passage at a flow rate 0.1 mL/min to completely replace the liquid in the passage, and then the analysis of the sample; solution was started (volume for analysis: 0.61 mL).
The obtained data was filtered on MVAS 1.3 software to extract particles having an aspect ratio of less than 0.85 for the purpose of excluding bubbles. The number of particles having a diameter of 10 μm or more in 10 mg of mitomycin C and the number of particles having a diameter of 25 μm or more in 10 mg of mitomycin C were separately counted using Microsoft Excel.
The above procedure was repeated 3 times, and the average value of the triplicates was used as the quantitative value.

[1] = 191 hours storage at 50° C. under uncontrolled humidity
[2] = 300 hours storage at 50° C. under uncontrolled humidity
[3] = Initial (0 hours), storage at 50° C. under uncontrolled humidity

## CO[C@@]12[C@H](COC(N)=O)C3=C(C(=O)C(C)=C(N)C3=O)N1C[C@@H]1N[C@@H]12 [Comparative Example 2, Mitomycin C]
[1]
  number of particles ≥10 μm in 10 mg of mitomycin C: 279617
  number of particles ≥25 μm in 10 mg of mitomycin C: 51953
[2]
  number of particles ≥10 μm in 10 mg of mitomycin C: 301967
  number of particles ≥25 μm in 10 mg of mitomycin C: 36216
[3]
  number of particles ≥10 μm in 10 mg of mitomycin C: 3853
  number of particles ≥25 μm in 10 mg of mitomycin C: 178
  change in number of particles having a diameter of 10 μm or more: significant increase
  change in number of particles having a diameter of 25 μm or more: significant increase

## CO[C@@]12[C@H](COC(N)=O)C3=C(C(=O)C(C)=C(N)C3=O)N1C[C@@H]1N[C@@H]12 [Example 1, mitomycin C]
[1]
  number of particles ≥10 μm in 10 mg of mitomycin C: 3624
  number of particles ≥25 μm in 10 mg of mitomycin C: 273
[2]
  number of particles ≥10 μm in 10 mg of mitomycin C: 5683
  number of particles ≥25 μm in 10 mg of mitomycin C: 314
[3]
  number of particles ≥10 μm in 10 mg of mitomycin C: 3047
  number of particles ≥25 μm in 10 mg of mitomycin C: 151
  change in number of particles having a diameter of 10 μm or more: almost no increase
  change in number of particles having a diameter of 25 μm or more: almost no increase

## CO[C@@]12[C@H](COC(N)=O)C3=C(C(=O)C(C)=C(N)C3=O)N1C[C@@H]1N[C@@H]12 [Comparative Example 1, Mitomycin C]
[1]
  number of particles ≥10 μm in 10 mg of mitomycin C: 7063
  number of particles ≥25 μm in 10 mg of mitomycin C: 861
[2]
  number of particles ≥10 μm in 10 mg of mitomycin C: 22527
  number of particles ≥25 μm in 10 mg of mitomycin C: 3005
[3]
  number of particles ≥10 μm in 10 mg of mitomycin C: 2118
  number of particles ≥25 μm in 10 mg of mitomycin C: 246
  change in number of particles having a diameter of 10 μm or more: significant increase
  change in number of particles having a diameter of 25 μm or more: significant increase
